Assays:
S. lutea = experiment: antibacterial activity (plate assay) vs S. lutea; format: cell-based
Protocol: The oxazoline (74 mg., 0.236 mmole) was dissolved in HMPT (1.5 ml.) and the solution was degassed with dry nitrogen for 0.5 hr. Then 0.83 ml. of a 0.612 M solution of t-BuSLi (0.508 mmole), prepared by method A, was added during 0.5 hr. and the mixture was stirred overnight. […] The characteristic peak of the oxazolinecarboxylic acid, 2-benzyl-6-(1'-carboxy-2'-methyl-prop-1'-enyl)-1-oxa-3,6-diaza-4S,5R-bicyclo [3,2,0] hept-2-ene-7-one, were absent from the spectrum.

[1] = antibacterial activity (organism not stated); format: cell-based; conditions: at levels of 250 mcg./ml.

SMILES: CC(Oc1ccc(Cl)cc1)C(=O)N[C@@H]1C(=O)N2[C@@H]1OC(C)(C)[C@@H]2C(=O)O (stereo partly drawn)
- antibacterial activity vs. S. lutea (S. lutea): high antibacterial activity

SMILES: CC1(C)O[C@@H]2[C@H](N3C(=O)c4ccccc4C3=O)C(=O)N2[C@H]1C(=O)O [6-phthalimido oxapenicillin]
- antibacterial activity versus S. lutea relative to phthalimidopenicillin (S. lutea; compared with phthalimidopenicillin): one-tenth the level of phthalimidopenicillin

SMILES: CC(C)=C(C(=O)O)N1C(=O)[C@H]2N=C(Cc3ccccc3)O[C@H]21 [oxazoline carboxylic acid, 2-benzyl-6-(1'-carboxy-2'-methylprop-1'-enyl)-1-oxa-3,6-diaza-4S,5R-bicyclo [3.2.0] hept-2-en-7-one]
- antibacterial activity at 250 mcg./ml. [1]: inactive

From US4018782A, “2,2-Dimethyl-3R-carboxy-6S- acylamido-1-oxa-4-aza-5R-bicyclo[3,2,0]heptan-7-ones” (Queen's University, priority 1974, dated 1977)
